Test [1] relates to annexin 1 (Anxa1) fragment. The settings on record: cited from earlier work.
A further test deals with normal lung. The settings on record: through pre-mRNA splicing factors; cited from earlier work.
Test [2] has as its system carbohydrate-dependent cancer cell colonization to the lung. The following applies: synthetic peptide injected intravenously into mice; cited from earlier work.
The test system of the next test is F-2 cells monolayer. As to the kind of experiment: transport through F-2 cell monolayer in trans well chamber. The test is classed as cell-based, mouse. The protocol: (§1) A. Binding of IF7C(RR)-conjugated FITC-polylysine on the surface of mouse endothelial F-2 cells cultured in vitro. B. Transport of […] FITC-poly-L-lysine through apical surface to basal space of F-2 cells monolayer. F-2 cells cultured on a filter of trans well insert was added with IF7C(RR)-conjugated FITC-poly-L-lysine to allow the reagent being bound to apical cell surface of F-2 cells. After washing the monolayer with medium, insert was placed in wells containing medium at 37° C. or at 4° C. Fluorescence moved to the lower chamber of insert was measured. C. Targeting and penetration of intravenously injected IF7C(RR)-conjugated FITC-poly-L-lysine in the B16 tumor in vivo in the mouse. Tissue section was immunostained for endothelial cell marker CD31.
(§2) Thus IFLLWQR-C-RR (SEQ ID NO: 17) or IF7C(RR) was synthesized. […] The cytoplasmic and nuclear FITC signals are consistent with the localization of Anxa1 in the cytoplasm and nucleus (Gerke, 2005 #5299). […] (FIG. 12B). […] To determine if the binding and transport of IF7C(RR) occur in vivo in the tumor vasculature, IF7C(RR)-conjugated FITC-poly-L-lysine was injected intravenously into a B16 tumor-bearing mouse. […] Small molecules such as SN-38 conjugated with IF7C(RR) can penetrate to the tumor deeper and faster than the large molecule such as poly-L-lysine.

Test [3] has as its system Anxa1-expressing mouse endothelial F-2 cells. As to the kind of experiment: binding to the surface of F-2 cells cultured in vitro. The test is classed as cell-based. The protocol: as §1, §2
The next test relates to B16 tumor vasculature. As to the kind of experiment: targeting and penetration in B16 tumor vasculature after intravenous injection. The settings on record: B16 tumor-bearing mouse. It is filed as in vivo. The protocol: as §1, §2
Test [4] relates to Mouse melanoma B16F1 tumors. The test is classed as in vivo. The following applies: B16 melanoma, 0.13 μmoles iv.
Description: (a) Mouse melanoma B16F1 tumors were grown subcutaneously in C57BL6 mice. On day 10, each mouse was injected intravenously with either 100 μl of 5% glucose or that containing 0.13 μmoles of each IF7, GA, or IF7-GA. Injections were administered every other day, for a total of three injections, until day 14. […] B, Histochemistry of tumors from the mice intravenously injected with the compounds described in A. Apoptotic tumor cells along blood vessels in transplanted tumors are detected by TUNEL assay. B16 melanoma (a), LLC lung carcinoma (b), PC3 prostate tumor (c) and MDA-MB-231 breast tumor (d) from mice treated with each compound.
Injections were administered every other day, for a total of 7 injections, until day 26, as shown by arrows.
Another test concerns the target T1, Anxa1-His6 protein (Homo sapiens, UniProt P04083).
T1 construct: Full-length cDNA encoding Anxa1 was obtained from Invitrogen (Carlsbad, Calif.) and subcloned into pET29a vector; His6 (C); made in house; host or cells: bacteria (pET29a vector, Novagen)
T1 sequence (P04083 1-346): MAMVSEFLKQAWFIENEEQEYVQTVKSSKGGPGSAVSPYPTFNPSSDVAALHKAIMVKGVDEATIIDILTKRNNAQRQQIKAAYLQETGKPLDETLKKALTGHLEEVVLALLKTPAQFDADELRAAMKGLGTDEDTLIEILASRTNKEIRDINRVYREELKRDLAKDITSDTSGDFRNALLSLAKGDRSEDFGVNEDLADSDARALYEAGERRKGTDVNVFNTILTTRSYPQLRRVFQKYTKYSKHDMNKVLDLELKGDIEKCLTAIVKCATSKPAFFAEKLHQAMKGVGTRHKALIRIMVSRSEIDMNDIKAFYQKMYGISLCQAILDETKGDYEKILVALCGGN
The experiment in a line: inhibition of binding of FITC-labeled polyacrylamide-LeA oligosaccharide to Anxa1-His6. The text has this: (§3) FIGS. 1A-1H show the essential role of annexin 1 (Anxa1) in tumor growth and identification of a peptide sequence with tumor vasculature targeting activity in vivo. A and B. Growth of B16 tumors subcutaneously injected into Anxa1(+/−) and Anxa1(−/−) mutant mice. C. Histology of B16 tumors produced in Anxa1(+/−) and Anxa1(−/−) mice. Each scale bar represents 2.00 mm. D. Immunohistochemistry of B16 tumors for CD31 showing endothelial cells and vasculature. Each scale bar represents 200 μm. E. In vivo phage targeting in B16 tumor-bearing mice. Numbers of transformed colonies recovered from the tumor or lung were determined. […] F. In vivo tumor and organ targeting activity of IFLLWQR (SEQ ID NO:2) displaying phage. Phage was injected into B16 tumor bearing mice pre-injected with anti-Anxa1 antibody or with control rabbit IgG. G. In vitro plate assay for binding of IF7-A488 (upper line) and control RQ7-A488C (lower line) to recombinant […] protein produced by bacteria. H. Effect of IF7 (upper line) and control RQ7 (lower line) on binding of FITC-labeled polyacrylamide-LeA oligosaccharide to Anxa1-His6 protein.
Full-length cDNA encoding Anxa1 was obtained from Invitrogen (Carlsbad, Calif.) and subcloned into pET29a vector (Novagen) to produce an […] fusion protein. […] After washing the plate, fluorescence was measured by a Molecular Devices Analyst HT plate reader. […]

The subject of test [5] is Human breast cancer MDA-MB-231 tumors. As to the kind of experiment: orthotopic MDA-MB-231 breast cancer model in SCID mice. The following applies: MDA-MB-231 breast tumor, 0.13 μmoles iv. It is filed as in vivo. How it is done:
(§4) FIGS. 6A and 6B show the effect of IF7-GA on melanoma, lung carcinoma, prostate cancer, and breast cancer mouse models. A, Effect of IF7-GA on tumor size. […] Mice were euthanised on day 15 to measure tumor weight. […] Mice were euthanised on day 13 and tumors weighed. (c) Human prostate cancer PC3 tumors were grown orthotopically in the prostate of SCID mice. On day 7, each mouse was injected intravenously with the compounds as in A-a, and injections administered every 4 days, for a total of four injections, until day 22. Mice were euthanised on day 28 and tumors weighed. (d) Human breast cancer MDA-MB-231 tumors were grown orthotopically in fat pads of SCID mice. On day 7, each mouse was injected intravenously with the compounds as in A-a, and injections performed every 4 days, for a total of four injections, until day 22. […] B, Histochemistry of tumors from the mice intravenously injected with the compounds described in A. Apoptotic tumor cells along blood vessels in transplanted tumors are detected by TUNEL assay. […]
(§5) Mouse melanoma B16F1 cells (2×10^5 cells/100 μl serum-free DMEM) were injected subcutaneously into the dorsal flank of C57BL/6 female mice (8-10 weeks old). […] On day 15, mice were sacrificed and tumor weights determined. […] On day 13, mice were sacrificed and tumor weights determined. […] On day 28, mice were sacrificed and prostate tumor weights determined. […]

In test [6] the test system is Human prostate cancer PC3 tumors. As to the kind of experiment: orthotopic PC3 prostate cancer model in SCID mice. The test is classed as in vivo. The settings on record: 0.13 μmoles iv. The protocol:
as §4, §5

The subject of a further test is B16 tumor. As to the kind of experiment: in vivo phage targeting in B16 tumor-bearing mice. Also on record: species or system mouse.
Description: as §3
Mouse melanoma B16F1 cells (2×10^5 cells/100 μl PBS) were injected subcutaneously into the dorsal flank of C57BL/6 female mice (8-10 weeks old). […] Colonies appearing on an agar plate after culturing at 37° C. for 20 hours were counted.

In test [7] the target is T2, Anxa1-His protein (Homo sapiens, UniProt P04083).
T2 construct: Full-length cDNA encoding Anxa1 was obtained from Invitrogen (Carlsbad, Calif.) and subcloned into pET29a vector; His6 (C); made in house; host or cells: bacteria (pET29a vector, Novagen)
T2 sequence (P04083 1-346): T1 sequence (P04083 1-346)
The experiment in a line: surface plasmon resonance on Anxa1 coated chip. The test is classed as binding. The following applies: qualitative. How it is done:
IASys (Affinity Sensors, Cambridge, UK) was used. Anxa1-His protein was immobilized on the sensor chip by cross-linking to the aminosilane surface using bis[sulfosuccinimidyl] substrate (Pierce). Binding of IF7C dissolved in TBSC was recorded for 2 min, and dissociation of IF7C was initiated by adding TBSC to the sensor chip and the arc second was recorded for 5 min.

Test [8] has as its target T2, Anxa1-His protein. The experiment in a line: isothermal titration calorimetry (ITC) with Anxa1-His protein. The test is classed as binding. The following applies: qualitative. How it is done: ITC was performed on a VP-ITC calorimeter from Microcal (Northampton, Mass.). In this analysis IF7K3C peptide or […] (SEQ ID NO:12), in which IF7 was modified by inserted with three lysine residues between IF7 and C to increase solubility in water. Eight μl aliquots of solution containing 1.0 or 1.5 mM were injected into the cell containing 100 or 150 μM Anxa1-His protein. In each experiment 37 injections were made. The experiments were performed at 23° C. in buffer containing 20 mM Tris pH 7.9, 250 mM NaCl, 1 mM CaCl2 and 10% dimethylsulfoxide. Experimental data were analyzed using Microcal Origin software provided by the ITC manufacturer (Microcal, Northampton, Mass.).

Test [9] relates to Mouse Lewis lung carcinoma (LLC) tumors. As to the kind of experiment: subcutaneous Lewis lung carcinoma tumor model. The test is classed as in vivo. The following applies: 0.13 μmoles iv. The protocol:
as §4, §5

No end group written: not given here.

Consider “IELLQAR [I-peptide, selectin ligand mimicry peptide]”, for which, in test [1], the “binding to annexin 1 fragment” value is “bound to an annexin 1 (Anxa1) fragment”. Moreover, the “targeting to normal lung” value in the test with normal lung was “also targets to normal lung”. The “cancer cell colonization to the lung” value in test [2] is reported as “inhibited carbohydrate-dependent cancer cell colonization to the lung”.
For “IF7C(RR)-conjugated FITC-poly-L-lysine: IF7C(RR) conjugated to FITC-poly-L-lysine (IFLLWQRCRR; also: conjugated to FITC-poly-L-lysine, site not given here)”, in the test on F-2 cells monolayer (4° C.), the “transport of fluorescence to the lower chamber at 4° C.” value is “not at 4 °C”. Further, the “transport of fluorescence to the lower chamber at 37° C.” value in the test on F-2 cells monolayer (37° C.) was “fluorescence migrated to the lower chamber”. The “binding to the surface of F-2 cells” value in test [3] is recorded as “bound to the surface of Anxa1-expressing mouse endothelial F-2 cells”. Also, in the test with B16 tumor vasculature, the “localization of fluorescence in tumor tissue sections” value is on record as “green fluorescence signals around the abluminal area of the vasculatures”.
As to “IFLLWQR (annexin-1 binding compound) [IF7]”, the “apoptosis of perivascular tumor cells (TUNEL, histochemistry)” value in [4] was “rarely show apoptosis”. Further, the “inhibition of fucosylated carbohydrate (LeA) binding to Anxa1” value in the test with Anxa1-His6 protein is reported as “inhibited by IF7”. Further, the “apoptosis of perivascular tumor cells (TUNEL)” value in [5], in test [6] and in test [9] was “rarely show apoptosis” each time. Moreover, in the test on B16 tumor (mouse, in vivo), the “targeting to the lung in tumor-bearing mice” value is given as “could not be detected”. For the same molecule, in the test with B16 tumor (tumor versus lung, B16 tumor-bearing mice), the “organ targeting of intravenously injected phage clone” value is reported as “targets tumor but not lung tissue”. Besides, in the test with Anxa1-His protein [7], the “binding to Anxa1 by surface plasmon resonance” value is reported as “confirmed”. The “binding to Anxa1 by isothermal titration assay” value in the test with Anxa1-His protein [8] is reported as “confirmed”.
`CO[C@H]1/C=C\C=C(/C)C(=O)NC2=CC(=O)C(NCCCNC(=O)CCCN3C(=O)C=CC3=O)=C(C[C@@H](C)C[C@H](OC)[C@H](O)[C@@H](C)/C=C(\C)[C@@H]1OC(N)=O)C2=O` [GA, 17-GMB-APA-GA, reference compound]: the “apoptosis of perivascular tumor cells (TUNEL, histochemistry)” value in test [4] is recorded as “rarely show apoptosis”. Also, the “apoptosis of perivascular tumor cells (TUNEL)” value in test [5], in test [6] and in [9] was “rarely show apoptosis” throughout.

Values taken from patent US9610359B2, “Methods and compositions related to annexin 1-binding compounds” (Burnham Institute for Medical Research, priority 2009, dated 2017).
